{
  "source": "paper PMC11574045",
  "about": "“A cofactor-induced repressive type of transcription factor condensation can be induced by synthetic peptides to suppress tumorigenesis” (The EMBO Journal, 2024)",
  "key": {"[1]": {"test_system": "GFP-TEAD4 condensates in HEK293FT cells", "assay": "FRAP of TEAD4 condensates in live cells", "type": "cell-based", "settings": "GLUP-treated HEK293FT cells", "experimental": "For FRAP analysis, cells were seeded at a confluency of ~30% on a 35-mm glass-bottomed dish (Cellvis D35C4-20-1-N). Live cell imaging was carried out using a Leica SP8 confocal microscope (Leica, Germany) with a 63× oil immersion objective lens. A defined region with a diameter of ~1 μm was photobleached by the equipped laser at ~90% power intensity. Fluorescence intensities of the region were recorded by carrying out time-lapse live imaging with a 1.29 s interval and further quantified using Fiji ImageJ software."}, "CTGF": {"test_system": "CTGF", "assay": "RNA-scope of CTGF in tumor tissues", "type": "in vivo, mouse", "settings": "tumors of GLUP-treated mice", "experimental": "RNA-scope was performed according to manufacturer’s protocols (RNAscope Red Detection Kit, ACDbio, 322360). Briefly, the tumor sections (3 μm thickness) were obtained from MNU-generated gastric tumor tissues. The sections were deparaffinized, retrieved, and then hybridized with Ctgf probes following the manufacturer’s instructions (ACD, Hayward, CA, USA). Subsequently, the signal of hybridized probes was further visualized using RED dye-labeled probes. Finally, the samples were redyed, this time with hematoxylin, and mounted with VectaMount Permanent Mounting Medium (Vector Laboratories, Burlingame, CA, USA), and photographed using a Nikon Upright Fluorescence Microscope (Nikon, Japan). Positive and negative control probes were used for each experiment to help derive conclusions from the data."}, "TEAD4-DNA": {"target": "T1, TEAD4-DNA (Homo sapiens, UniProt Q15561)", "T1 construct": "His; made in house; host or cells: Escherichia coli BL21(DE3)", "T1 sequence (Q15561 whole entry)": "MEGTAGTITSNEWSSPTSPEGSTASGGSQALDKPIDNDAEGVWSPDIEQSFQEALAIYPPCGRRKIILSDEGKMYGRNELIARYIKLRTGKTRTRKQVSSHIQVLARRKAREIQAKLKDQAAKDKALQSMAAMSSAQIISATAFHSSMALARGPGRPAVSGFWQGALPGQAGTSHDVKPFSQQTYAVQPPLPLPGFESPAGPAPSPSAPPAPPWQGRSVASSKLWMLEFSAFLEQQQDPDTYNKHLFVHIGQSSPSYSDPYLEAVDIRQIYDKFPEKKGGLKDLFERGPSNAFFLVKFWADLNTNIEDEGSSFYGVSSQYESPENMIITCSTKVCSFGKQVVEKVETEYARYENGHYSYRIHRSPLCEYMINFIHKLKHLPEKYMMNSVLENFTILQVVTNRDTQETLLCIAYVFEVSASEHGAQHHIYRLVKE", "assay": "DAPI imaging of M-CAT DNA organization with purified proteins", "type": "biochemical", "settings": "GLUP 1 μg/ml (0.5 μM)", "experimental": "LLPS is considered as principle for chromosome compartmentalization and condensation (Hildebrand and Dekker, [2020]; Shin et al, [2018]). […] To test this hypothesis, we used confocal microscopy to observe the morphology of M-CAT DNA (Fig. 4D). […] When VGLL4 protein was added into the mixture, the DNA chains appeared more aggregated and tangled (Fig. 4D).\nTo confirm cellular entry of GLUP, we performed immunostaining of live cells treated with a fluorescein-labeled version of the peptide (FAM-GLUP). […] We then examined the potential effect of GLUP on TEAD4-mediated perturbation of DNA conformation."}, "[2]": {"test_system": "WT or TEAD4KO HGC-27 cells", "assay": "Cut&Tag", "type": "cell-based, human", "settings": "GLUP 10 μg/ml (5 μM)"}},
  "note": "Ends that are not written are not given here.",
  "data": [
    {"substance": "RRVCVHFHFSLSLR-NH2 (C-terminus assumed) [glup]", "values": [
      {"measurement": "mobile fraction (FRAP)", "setting": "[1]", "result": "about 62%"},
      {"measurement": "Expression of TEAD4 target gene CTGF in tumor tissue", "setting": "CTGF", "result": "sharply decreased in a dose-dependent manner"},
      {"measurement": "Effect on TEAD4-mediated DNA conformation", "setting": "TEAD4-DNA", "result": "strongly promoted TEAD4-mediated formation of DNA aggregations and tangles"},
      {"measurement": "H3K27me3 signals at 3 kb regions flanking TSS", "setting": "[2]; TEAD4-depleted HGC-27 cells", "result": "no such effect was detected"},
      {"measurement": "H3K27me3 signals at 3 kb regions flanking TSS", "setting": "[2]; WT HGC-27 cells", "result": "dramatically strengthened the signals of H3K27me3"}
    ]}
  ]
}
